Test results: PubChem BioAssay AID1259407 (Chemical Carcinogenesis Research Information System (CCRIS), 2018)
Activity calls are given as the source filed them. The rule behind the calls is not given here.

System: CCRIS mutagenicity, Ames/micronucleus/aberration tests
Assay: CCRIS mutagenicity studies
Text: The CCRIS database contains chemical records with carcinogenicity, mutagenicity, tumor promotion, and tumor inhibition test results. It was developed by the National Cancer Institute (NCI). Data are derived from studies cited in primary journals, current awareness tools, NCI reports, and other sources. Test results have been reviewed by experts in carcinogenesis and mutagenesis.
CCRIS provides historical information from the years 1985 - 2011. It is no longer updated.
This is an archive assay for CCRIS mutagenicity studies.

COc1cc(-c2ccc(N=C=O)c(OC)c2)ccc1N=C=O
mutagenic call (Test System: AMES SALMONELLA TYPHIMURIUM, Strain/Indicator: TA98, Metabolic Activation: HAMSTER, LIVER, S-9, AROCLOR 1254, Method: STANDARD PLATE): active; positive | mutagenic call (Test System: AMES SALMONELLA TYPHIMURIUM, Strain/Indicator: TA98, Metabolic Activation: HAMSTER, LIVER, S-9, Method: STANDARD PLATE): active; positive | mutagenic call (Test System: AMES SALMONELLA TYPHIMURIUM, Strain/Indicator: TA98, Metabolic Activation: MOUSE, LIVER, S-9, AROCLOR 1254, Method: STANDARD PLATE): active; positive | mutagenic call (Test System: AMES SALMONELLA TYPHIMURIUM, Strain/Indicator: TA98, Metabolic Activation: MOUSE, LIVER, S-9, Method: STANDARD PLATE): active; positive | mutagenic call (Test System: AMES SALMONELLA TYPHIMURIUM, Strain/Indicator: TA98, Metabolic Activation: RAT, LIVER, S-9, AROCLOR 1254, Method: STANDARD PLATE): active; positive | mutagenic call (Test System: AMES SALMONELLA TYPHIMURIUM, Strain/Indicator: TA98, Metabolic Activation: RAT, LIVER, S-9, Method: STANDARD PLATE): active; positive | mutagenic call (Test System: AMES SALMONELLA TYPHIMURIUM, Strain/Indicator: TA100, Metabolic Activation: HAMSTER, LIVER, S-9, AROCLOR 1254, Method: STANDARD PLATE): inactive; negative | mutagenic call (Test System: AMES SALMONELLA TYPHIMURIUM, Strain/Indicator: TA100, Metabolic Activation: HAMSTER, LIVER, S-9, Method: STANDARD PLATE): inactive; negative | mutagenic call (Test System: AMES SALMONELLA TYPHIMURIUM, Strain/Indicator: TA100, Metabolic Activation: MOUSE, LIVER, S-9, AROCLOR 1254, Method: STANDARD PLATE): inactive; negative | mutagenic call (Test System: AMES SALMONELLA TYPHIMURIUM, Strain/Indicator: TA100, Metabolic Activation: MOUSE, LIVER, S-9, Method: STANDARD PLATE): inactive; negative | mutagenic call (Test System: AMES SALMONELLA TYPHIMURIUM, Strain/Indicator: TA100, Metabolic Activation: NONE, Method: STANDARD PLATE): inactive; negative | mutagenic call (Test System: AMES SALMONELLA TYPHIMURIUM, Strain/Indicator: TA1535, Metabolic Activation: HAMSTER, LIVER, S-9, AROCLOR 1254, Method: STANDARD PLATE): inactive; negative | mutagenic call (Test System: AMES SALMONELLA TYPHIMURIUM, Strain/Indicator: TA1535, Metabolic Activation: HAMSTER, LIVER, S-9, Method: STANDARD PLATE): inactive; negative | mutagenic call (Test System: AMES SALMONELLA TYPHIMURIUM, Strain/Indicator: TA1535, Metabolic Activation: MOUSE, LIVER, S-9, AROCLOR 1254, Method: STANDARD PLATE): inactive; negative | mutagenic call (Test System: AMES SALMONELLA TYPHIMURIUM, Strain/Indicator: TA1535, Metabolic Activation: MOUSE, LIVER, S-9, Method: STANDARD PLATE): inactive; negative | mutagenic call (Test System: AMES SALMONELLA TYPHIMURIUM, Strain/Indicator: TA1535, Metabolic Activation: NONE, Method: STANDARD PLATE): inactive; negative | mutagenic call (Test System: AMES SALMONELLA TYPHIMURIUM, Strain/Indicator: TA1535, Metabolic Activation: RAT, LIVER, S-9, AROCLOR 1254, Method: STANDARD PLATE): inactive; negative | mutagenic call (Test System: AMES SALMONELLA TYPHIMURIUM, Strain/Indicator: TA1535, Metabolic Activation: RAT, LIVER, S-9, Method: STANDARD PLATE): inactive; negative | mutagenic call (Test System: AMES SALMONELLA TYPHIMURIUM, Strain/Indicator: TA1537, Metabolic Activation: HAMSTER, LIVER, S-9, AROCLOR 1254, Method: STANDARD PLATE): inactive; negative | mutagenic call (Test System: AMES SALMONELLA TYPHIMURIUM, Strain/Indicator: TA1537, Metabolic Activation: HAMSTER, LIVER, S-9, Method: STANDARD PLATE): inactive; negative | mutagenic call (Test System: AMES SALMONELLA TYPHIMURIUM, Strain/Indicator: TA1537, Metabolic Activation: MOUSE, LIVER, S-9, AROCLOR 1254, Method: STANDARD PLATE): inactive; negative | mutagenic call (Test System: AMES SALMONELLA TYPHIMURIUM, Strain/Indicator: TA1537, Metabolic Activation: MOUSE, LIVER, S-9, Method: STANDARD PLATE): inactive; negative | mutagenic call (Test System: AMES SALMONELLA TYPHIMURIUM, Strain/Indicator: TA1537, Metabolic Activation: NONE, Method: STANDARD PLATE): inactive; negative | mutagenic call (Test System: AMES SALMONELLA TYPHIMURIUM, Strain/Indicator: TA1537, Metabolic Activation: RAT, LIVER, S-9, AROCLOR 1254, Method: STANDARD PLATE): inactive; negative | mutagenic call (Test System: AMES SALMONELLA TYPHIMURIUM, Strain/Indicator: TA1537, Metabolic Activation: RAT, LIVER, S-9, Method: STANDARD PLATE): inactive; negative | mutagenic call (Test System: AMES SALMONELLA TYPHIMURIUM, Strain/Indicator: TA1538, Metabolic Activation: HAMSTER, LIVER, S-9, AROCLOR 1254, Method: STANDARD PLATE): active; positive | mutagenic call (Test System: AMES SALMONELLA TYPHIMURIUM, Strain/Indicator: TA1538, Metabolic Activation: HAMSTER, LIVER, S-9, Method: STANDARD PLATE): active; positive | mutagenic call (Test System: AMES SALMONELLA TYPHIMURIUM, Strain/Indicator: TA1538, Metabolic Activation: MOUSE, LIVER, S-9, AROCLOR 1254, Method: STANDARD PLATE): active; positive | mutagenic call (Test System: AMES SALMONELLA TYPHIMURIUM, Strain/Indicator: TA1538, Metabolic Activation: MOUSE, LIVER, S-9, Method: STANDARD PLATE): active; positive | mutagenic call (Test System: AMES SALMONELLA TYPHIMURIUM, Strain/Indicator: TA1538, Metabolic Activation: RAT, LIVER, S-9, AROCLOR 1254, Method: STANDARD PLATE): active; positive | mutagenic call (Test System: AMES SALMONELLA TYPHIMURIUM, Strain/Indicator: TA1538, Metabolic Activation: RAT, LIVER, S-9, Method: STANDARD PLATE): active; positive | mutagenic call (Test System: E. COLI, Strain/Indicator: WP2 UVRA, Metabolic Activation: HAMSTER, LIVER, S-9, AROCLOR 1254, Method: STANDARD PLATE): inactive; negative | mutagenic call (Test System: E. COLI, Strain/Indicator: WP2 UVRA, Metabolic Activation: HAMSTER, LIVER, S-9, Method: STANDARD PLATE): inactive; negative | mutagenic call (Test System: E. COLI, Strain/Indicator: WP2 UVRA, Metabolic Activation: MOUSE, LIVER, S-9, AROCLOR 1254, Method: STANDARD PLATE): inactive; negative | mutagenic call (Test System: E. COLI, Strain/Indicator: WP2 UVRA, Metabolic Activation: MOUSE, LIVER, S-9, Method: STANDARD PLATE): inactive; negative | mutagenic call (Test System: E. COLI, Strain/Indicator: WP2 UVRA, Metabolic Activation: NONE, Method: STANDARD PLATE): inactive; negative | mutagenic call (Test System: E. COLI, Strain/Indicator: WP2 UVRA, Metabolic Activation: RAT, LIVER, S-9, AROCLOR 1254, Method: STANDARD PLATE): inactive; negative | mutagenic call (Test System: E. COLI, Strain/Indicator: WP2 UVRA, Metabolic Activation: RAT, LIVER, S-9, Method: STANDARD PLATE): inactive; negative

CCN=NC(C)(C)OO
mutagenic call (Test System: AMES SALMONELLA TYPHIMURIUM, Strain/Indicator: TA1535, Metabolic Activation: NONE): inactive; negative | mutagenic call (Test System: E. COLI, Strain/Indicator: WP2 (HCR-), Metabolic Activation: NONE): active; positive

C=C(C=O)C[C@@H]1C[C@H](O)[C@@H]2O[C@@H]3C[C@@H]4O[C@@H]5/C=C\C[C@@H]6O[C@H]7[C@H](C/C=C\C[C@H]6O[C@H]5CCC[C@H]4O[C@H]3C[C@H]2O1)O[C@@H]1C[C@@H]2O[C@@H]3CC(=O)O[C@H]3C[C@@H](C)C[C@@]2(C)O[C@H]1C[C@@H]7C
mutagenic call (End Point: In vitro chromosomal aberrations, Test System: Chinese hamster ovary (CHO-K1-BH4) cells, Metabolic Activation: None): active; positive (structural changes)
